In PubChem BioAssay AID256 (DTP/NCI, 2004):
“And” between values parts separate entries of the source, which are not always exact repeats. Identical values can stand only once. Inconclusive results and toxic doses are left out. Rule for the calls: active = survival T/C of 150% or more; inactive = T/C below 125% in these data.

Tested on: CD2F1 mice, L1210 leukemia ip, survival T/C
Assay: NCI In Vivo Anticancer Drug Screen. Data for tumor model L1210 Leukemia (intraperitoneal) in CD2F1 (CDF1) mice
Details: higher = longer survival
Outline: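 Activity against a transplanted murine tumor was judged by comparing the compound group with a vehicle group. The outcome in the treated animals was divided by that in the controls.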

[1] = endpoint: mean survival time, dose: 100.0 mg/kg/injection, schedule: Q01DX001 (ip), vehicle: saline with Tween-80
[2] = endpoint: mean survival time, dose: 200.0 mg/kg/injection, schedule: Q01DX001 (ip), vehicle: saline with Tween-80
[3] = endpoint: mean survival time, dose: 100.0 mg/kg/injection, schedule: Q04DX003 (ip), vehicle: saline
[4] = endpoint: mean survival time, dose: 100.0 mg/kg/injection, schedule: Q01DX009 (ip), vehicle: saline with Tween-80
[5] = endpoint: mean survival time, dose: 200.0 mg/kg/injection, schedule: Q04DX003 (ip), vehicle: saline
[6] = endpoint: mean survival time, dose: 400.0 mg/kg/injection, schedule: Q04DX003 (ip), vehicle: saline
[7] = endpoint: mean survival time, dose: 25.0 mg/kg/injection, schedule: Q04DX002 (ip), vehicle: saline with Tween-80
[8] = endpoint: mean survival time, dose: 50.0 mg/kg/injection, schedule: Q04DX002 (ip), vehicle: saline with Tween-80
[9] = endpoint: mean survival time, dose: 100.0 mg/kg/injection, schedule: Q04DX002 (ip), vehicle: saline with Tween-80
[10] = endpoint: mean survival time, dose: 200.0 mg/kg/injection, schedule: Q04DX002 (ip), vehicle: saline with Tween-80

Measured: T/C

COC1OC(Nc2nc(SC)[nH]c(=O)c2C(C)=O)C(O)C(O)C1O (configuration not stated)
inactive: endpoint: median survival time, dose: 12.5 mg/kg/injection, schedule: Q01DX005 (ip), vehicle: saline with Tween-80 98 % of control | endpoint: median survival time, dose: 25.0 mg/kg/injection, schedule: Q01DX005 (ip), vehicle: saline with Tween-80 97 % of control | endpoint: median survival time, dose: 50.0 mg/kg/injection, schedule: Q01DX005 (ip), vehicle: saline with Tween-80 94 % of control | endpoint: median survival time, dose: 100.0 mg/kg/injection, schedule: Q01DX005 (ip), vehicle: saline with Tween-80 95 % of control | endpoint: median survival time, dose: 200.0 mg/kg/injection, schedule: Q01DX005 (ip), vehicle: saline with Tween-80 97 % of control

CCC[CH2][Sn](=[S])[CH2]CCC
inactive: endpoint: mean survival time, dose: 0.39 mg/kg/injection, schedule: Q01DX009 (ip), vehicle: other 102 % of control | endpoint: mean survival time, dose: 0.78 mg/kg/injection, schedule: Q01DX009 (ip), vehicle: other 100 % of control | endpoint: mean survival time, dose: 1.56 mg/kg/injection, schedule: Q01DX009 (ip), vehicle: other 107 % of control | endpoint: mean survival time, dose: 6.25 mg/kg/injection, schedule: Q04DX003 (ip), vehicle: other 103 % of control | endpoint: mean survival time, dose: 12.5 mg/kg/injection, schedule: Q04DX003 (ip), vehicle: other 103 % of control

COc1cc2c(cc1OC)-c1c3c(cc4c1[C@@H](C2)N(C)CC4)OCO3
inactive: endpoint: median survival time, dose: 12.5 mg/kg/injection, schedule: Q01DX005 (ip), vehicle: distilled water + Tween-80 96 % of control | endpoint: median survival time, dose: 25.0 mg/kg/injection, schedule: Q01DX005 (ip), vehicle: distilled water + Tween-80 104 % of control | endpoint: median survival time, dose: 50.0 mg/kg/injection, schedule: Q01DX005 (ip), vehicle: distilled water + Tween-80 87 % of control | endpoint: median survival time, dose: 100.0 mg/kg/injection, schedule: Q01DX005 (ip), vehicle: distilled water + Tween-80 107 % of control

CN1C=NN(C)C=N1
inactive: endpoint: mean survival time, dose: 75.0 mg/kg/injection, schedule: Q01DX001 (ip), vehicle: saline 100 % of control | endpoint: mean survival time, dose: 150.0 mg/kg/injection, schedule: Q01DX001 (ip), vehicle: saline 97 % of control | endpoint: mean survival time, dose: 300.0 mg/kg/injection, schedule: Q01DX001 (ip), vehicle: saline 108 % of control

NNN1CCN(N)CC1
inactive: [1] 103 % of control | [2] 111 % of control | endpoint: mean survival time, dose: 400.0 mg/kg/injection, schedule: Q01DX001 (ip), vehicle: saline with Tween-80 91 % of control

CNC(=O)c1ccc[n+](CC(=O)NCc2ccccc2)c1
inactive: [3] 107 % of control

Nc1nc(NNC(=O)c2ccccc2)c2nonc2n1
inactive: endpoint: mean survival time, dose: 12.5 mg/kg/injection, schedule: Q01DX005 (ip), vehicle: other 95 % of control | endpoint: mean survival time, dose: 25.0 mg/kg/injection, schedule: Q01DX005 (ip), vehicle: other 95 % of control | endpoint: mean survival time, dose: 50.0 mg/kg/injection, schedule: Q01DX005 (ip), vehicle: other 91 % of control | endpoint: mean survival time, dose: 200.0 mg/kg/injection, schedule: Q01DX005 (ip), vehicle: other 91 % of control

N#Cc1cnoc1N
inactive: [4] 112 % of control | endpoint: mean survival time, dose: 200.0 mg/kg/injection, schedule: Q01DX009 (ip), vehicle: saline with Tween-80 114 % of control | endpoint: mean survival time, dose: 400.0 mg/kg/injection, schedule: Q01DX009 (ip), vehicle: saline with Tween-80 109 % of control

CC1=[C-]C=CS1=O.[C-]#[O+].[C-]#[O+].[C-]#[O+].[Mo].[c-]1[c-][c-][cH-][c-]1 (configuration not stated)
inactive: endpoint: mean survival time, dose: 9.38 mg/kg/injection, schedule: Q04DX002 (ip), vehicle: saline with Tween-80 96 % of control | endpoint: mean survival time, dose: 18.7 mg/kg/injection, schedule: Q04DX002 (ip), vehicle: saline with Tween-80 96 % of control | endpoint: mean survival time, dose: 37.5 mg/kg/injection, schedule: Q04DX002 (ip), vehicle: saline with Tween-80 100 % of control

CC[C@]1(O)C[C@H]2CN(CCc3c([nH]c4ccccc34)[C@@](C(=O)OC)(c3cc4c(cc3OC)N(C)[C@H]3[C@@](O)(C(=O)OC)[C@H](OC(C)=O)[C@]5(CC)C=CCN6CC[C@]43[C@@H]65)C2)C1
inactive: endpoint: mean survival time, dose: 0.03 mg/kg/injection, schedule: Q01DX009 (ip), vehicle: water 92 % of control | endpoint: mean survival time, dose: 0.06 mg/kg/injection, schedule: Q01DX009 (ip), vehicle: water 97 % of control | endpoint: mean survival time, dose: 0.13 mg/kg/injection, schedule: Q01DX009 (ip), vehicle: water 95 % of control | endpoint: mean survival time, dose: 0.25 mg/kg/injection, schedule: Q01DX007 (ip), vehicle: water 120 % of control | endpoint: mean survival time, dose: 0.5 mg/kg/injection, schedule: Q04DX003 (ip), vehicle: water 120 % of control | endpoint: mean survival time, dose: 1.0 mg/kg/injection, schedule: Q01DX007 (ip), vehicle: water 91 % of control | endpoint: mean survival time, dose: 1.0 mg/kg/injection, schedule: Q01DX009 (ip), vehicle: saline 90 % of control and 91 % of control | endpoint: mean survival time, dose: 1.0 mg/kg/injection, schedule: Q01DX009 (ip), vehicle: water 86 % of control | endpoint: mean survival time, dose: 1.0 mg/kg/injection, schedule: Q04DX003 (ip), vehicle: water 120 % of control | endpoint: median survival time, dose: 0.83 mg/kg/injection, schedule: Q01DX009 (ip), vehicle: saline 110 % of control | endpoint: median survival time, dose: 1000.0 micrograms/kg/injection, schedule: Q01DX009 (ip), vehicle: saline 98 % of control

NC1CCCCC(O)CCCC1 (configuration not stated)
inactive: endpoint: mean survival time, dose: 12.5 mg/kg/injection, schedule: Q01DX001 (ip), vehicle: saline with Tween-80 95 % of control | endpoint: mean survival time, dose: 25.0 mg/kg/injection, schedule: Q01DX001 (ip), vehicle: saline with Tween-80 92 % of control | endpoint: mean survival time, dose: 50.0 mg/kg/injection, schedule: Q01DX001 (ip), vehicle: saline with Tween-80 97 % of control

CCN(C(=O)C(F)(F)F)C(C)(C)C(SSSC(c1ccc(Cl)cc1)C(C)(C)N(CC)C(=O)C(F)(F)F)c1ccc(Cl)cc1 (configuration not stated)
inactive: [3] 103 % of control | [5] 105 % of control | [6] 86 % of control

Cn1ncc2c1NC(c1ccc(F)cc1)SCC2=O (configuration not stated)
inactive: endpoint: mean survival time, dose: 25.0 mg/kg/injection, schedule: Q01DX009 (ip), vehicle: gum acacia 95 % of control and 96 % of control | endpoint: mean survival time, dose: 50.0 mg/kg/injection, schedule: Q01DX009 (ip), vehicle: gum acacia 97 % of control and 101 % of control | endpoint: mean survival time, dose: 100.0 mg/kg/injection, schedule: Q01DX009 (ip), vehicle: gum acacia 92 % of control and 95 % of control and 103 % of control | endpoint: mean survival time, dose: 200.0 mg/kg/injection, schedule: Q01DX009 (ip), vehicle: gum acacia 96 % of control and 104 % of control | endpoint: mean survival time, dose: 400.0 mg/kg/injection, schedule: Q01DX009 (ip), vehicle: gum acacia 100 % of control

CC(CN=Cc1ccccc1O)N=Cc1ccccc1O.[Cu] (configuration not stated)
inactive: [7] 96 % of control | [8] 103 % of control | [9] 100 % of control | [10] 103 % of control

N\C([S-])=N/N=C\C(=N/N=C(\N)[S-])C(O)C(O)C(O)CO.[Rh+2] (configuration not stated)
inactive: endpoint: mean survival time, dose: 100.0 mg/kg/injection, schedule: Q01DX001 (ip), vehicle: saline 98 % of control | endpoint: mean survival time, dose: 200.0 mg/kg/injection, schedule: Q01DX001 (ip), vehicle: saline 96 % of control | endpoint: mean survival time, dose: 400.0 mg/kg/injection, schedule: Q01DX001 (ip), vehicle: saline 96 % of control

O=C(Nc1ccccc1[N+](=O)[O-])OC/C=C/c1ccccc1
inactive: [9] 91 % of control | [10] 91 % of control | endpoint: mean survival time, dose: 400.0 mg/kg/injection, schedule: Q04DX002 (ip), vehicle: saline with Tween-80 87 % of control

CCCCCC(C)C1=NC(C)(C)CC(C)O1 (configuration not stated)
inactive: endpoint: mean survival time, dose: 5.0 mg/kg/injection, schedule: Q01DX009 (ip), vehicle: saline 94 % of control | endpoint: mean survival time, dose: 10.0 mg/kg/injection, schedule: Q01DX009 (ip), vehicle: saline 95 % of control | endpoint: mean survival time, dose: 20.0 mg/kg/injection, schedule: Q01DX009 (ip), vehicle: saline 97 % of control | [1] 97 % of control | [2] 93 % of control

CC(=O)OCC1CCN2CCCC12 (configuration not stated)
inactive: endpoint: mean survival time, dose: 12.5 mg/kg/injection, schedule: Q01DX009 (ip), vehicle: water 101 % of control | endpoint: mean survival time, dose: 25.0 mg/kg/injection, schedule: Q01DX009 (ip), vehicle: water 96 % of control | endpoint: mean survival time, dose: 50.0 mg/kg/injection, schedule: Q01DX009 (ip), vehicle: water 98 % of control | endpoint: mean survival time, dose: 100.0 mg/kg/injection, schedule: Q01DX009 (ip), vehicle: water 101 % of control | endpoint: mean survival time, dose: 200.0 mg/kg/injection, schedule: Q01DX009 (ip), vehicle: water 101 % of control

O=S(=O)(Cl)c1cccc2cc3ccccc3cc12
inactive: [3] 109 % of control | [5] 97 % of control | [6] 103 % of control

C[n+]1nc(-c2ccccc2)oc1-c1ccccc1
inactive: [7] 100 % of control | [8] 100 % of control | [9] 108 % of control | [10] 106 % of control

OCc1ccc[n+](CCc2c[nH]c3ccccc23)c1
inactive: endpoint: mean survival time, dose: 50.0 mg/kg/injection, schedule: Q01DX009 (ip), vehicle: saline with Tween-80 104 % of control | [4] 95 % of control
